The values below come from patent US20150094264A1, “USE OF OBESTATIN FOR MUSCLE REGENERATION” (UNIVERSIDADE DE SANTIAGO DE COMPOSTELA, priority 2012, published 2015).

The subject of one test is ERK 1/2. The test can be described thus: Activation of ERK 1/2 [pERK1/2(T202/Y204)] by obestatin in L6E9 myoblasts, immunoblot. It counts as cell-based, rat. Here is the method: FIG. 1. Activation of regulatory enzymes of mitogenesis and myogenesis by obestatin in L6E9 myoblasts and myotubes. Effect of obestatin on activity of regulatory enzymes of the mitogenic capacity (ERK 1/2), metabolic capacity (Akt and AMPK) and myogenic capacity (Akt and p38). Based on a dose-response study, the saturating dose for the maximum enzymatic activation is established for a concentration of 5 nM. […] Inactivation of AMPK is described in both cell models. The activation profile discovers bimodal characteristics for the action of obestatin: 1.—mitogenic activation in myoblasts; and, 2.—myogenic activation. The immunoblots are representative of 6 independent assays.
(§1) The studies were performed based on the use of L6E9 rat myoblasts which were maintained in growth medium (GM) formed by DMEM (Dulbecco's Modified Eagle Medium) supplemented with 10% fetal bovine serum (FBS), 100 U/mL penicillin, and 100 U/mL streptomycin. For the differentiation, the cells were cultured at 80-100% of confluence in GM and it was replaced for differentiation medium (DM) formed by DMEM supplemented with 2% FBS, 100 U/mL penicillin, and 100 U/mL streptomycin during 6 days.
(§2) The tissue or cell samples were directly lysed in RIPA buffer [Tris-HCl (pH 7.2), 50 mM; NaCl, 150 mM; EDTA, 1 mM; NP-40, 1% (v/v); Sodium deoxycholate, 0.25% (w/v); protease inhibitors (Sigma); phosphatise inhibitors (Sigma)]. The lysates were clarified by centrifugation (14,000×g during 15 min at 4° C.) and the protein concentration was quantified using QuantiPro™ BCA assay kit (Sigma). For immunoblot, equal amounts of protein were loaded which were fractionated in SOS-PAGE gels and transferred to nitrocellulose membranes. The immunoreactive bands were detected by chemiluminescence (Pierce ECL Western Blotting Substrate; Thermo Scientific, Ill., USA).
To define the mitogenic and myogenic effect of obestatin, the activation capacity was studied of intracellular targets regulating proliferation (ERK1/2) and/or differentiation (p38 and Akt). […]
(Immunoblotting shows a protein as a band on a membrane.)

In the next test the test system is L6E9 myoblasts. The test can be described thus: Mitogenic effect (number of cells) in L6E9 myoblasts in growth medium. It counts as cell-based, rat. As for the experimental part:
FIG. 2. Mitogenic effect of obestatin in L6E9 myoblasts. Mitogenic effect of different doses of obestatin (0.01-100 nM) in L6E9 myoblasts after 48 hours of stimulation in the presence of growth medium [GM: DMEN+10% FBS]. Co: initial number of cells. Control: number of cells after 48 hours in GM. GM+obestatin: number of cells after 48 hours of stimulation with obestatin in GM. The data are expressed as mean±standard error of 4 independent experiments (*, p<0.05).
as §1
Dose-dependent studies performed on myoblasts with different obestatin concentrations (0.01-100 nM) in GM (proliferative conditions) show a maximum increase in the number of cells at 48 hours post-stimulation at a concentration of 5.0 nM obestatin (˜2.2-increased in relation to the control; FIG. 2).

The test system of test [1] is skeletal muscle tissue (gastrocnemius and soleus) in male rats. The test can be described thus: Chronic administration by osmotic mini-pumps: myogenic markers in gastrocnemius and soleus of rat, immunoblot. Format: in vivo, Sprague-Dawley rats. As to conditions: 300 nmol/kg body weight/24 h s.c. infusion, 72 h. As for the experimental part:
FIG. 7. Effect of the chronic administration of obestatin on the myogenic markers in the gastrocnemius and soleus of rat (animal model). Effect of the administration during 72 hours of obestatin (300 nmol/kg/24 h; 72 h) by the implantation of mini-pumps on early and later markers of myogenesis in skeletal muscle tissue (gastrocnemius and soleus) in male rats. A: Western-blot analysis. First column: control; second column: treatment with obestatin. B: Protein levels in gastrocnemius. White column: control; grey column: treatment with obestatin. The protein levels are expressed as % of the control obtained from the group of animals with implantation of mini-pumps with saline (n=10 per group; mean±standard error; *, p<0.05). C: Protein levels in soleus. White column: control; grey column: treatment with obestatin. The protein levels are expressed as % of the control obtained from the group of animals with implantation of mini-pumps with saline (n=10 per group; mean±standard error; *, p<0.05).
as §2
Two animal models were used for the in vivo assays: Sprague-Dawley rats and Swiss mice. The Sprague-Dawley (250 g; n=20) rats were maintained in 12 h light-darkness cycled with free access to standard diet and water. The Alzet® mini-pumps (model 1003D) were subcutaneously implanted. The animals were assigned to one of the two experimental groups (n=10/group): 1) control group (mini-pumps with saline); and, 2) obestatin group (mini-pumps implanted containing 300 nmol/kg weight/24 h). These mini-pumps allow a diffusion flow of 1 microL/h. After 72 h, the rats were sacrificed by cervical dislocation under anaesthetic treatment, and soleus and gastrocnemius tissues were extracted for immunoblot analysis.
Based on the short mean life of obestatin in plasma, osmotic mini-pumps were used for the in vivo administration of this peptide. Two groups of male rats were worked with: a group of 10 male rats received the continuous subcutaneous infusion of obestatin during 72 h (300 nmol/kg body weight/24 h); and another group of 10 rats received the equivalent volume of PBS during 72 h. The animals were sacrificed and the gastrocnemius and soleus muscles were removed and processed to analyse the expression of key factors of muscular differentiation by immunoblot. […] The increase in both types of muscle of the family of regulatory factors of different stages in myogenesis show a clear muscle regenerative capacity for obestatin.

The subject of test [2] is tibialis anterior muscle in mice where the sciatic nerve has been denervated. The test can be described thus: Weight reduction of tibialis anterior after denervation of the sciatic nerve (model of muscular atrophy). As to conditions: 300 nmol/kg weight local, 14 days. Format: in vivo, Swiss mice. Here is the method: FIG. 14. Analysis of the weight reduction of the tibialis anterior muscle in mice where the sciatic nerve has been denervated (model of muscular atrophy) under the exogenous administration of obestatin or vehicle (PBS). Swiss mice were used whereon the sciatic nerve was denervated in one of the limbs, using the other as control. The effect of the administration of obestatin (300 nmol/kg weight) or the vehicle (PBS; control) was assessed in the tibialis anterior muscle after 14 days. The data are expressed as % of weight reduction with respect to the control without denervation (n=5 per group; mean±standard error; *, p<0.005).
To study muscular atrophy, the sciatic nerve was denervated using Swiss mice. The denervation of the sciatic nerve was performed under anaesthesia, making an incision in the mid thigh on the lateral face of the rear right limb, separating the muscles and raising the sciatic nerve with surgical forceps. A portion of the nerve was isolated removing a fragment thereof. Finally the incision was closed. These animals were locally administered an injection of obestatin (300 nmol/kg weight) or the corresponding vehicle (PBS; control) in intervals of 24 h during 14 days.

For obestatin, in the test on ERK 1/2, the “obestatin concentration at which activation of ERK 1/2 [pERK1/2(T202/Y204)] was observed” value worked out at 0.1 nM. In the test on ERK 1/2 (dose-response), the “obestatin concentration at which pERK1/2(T202/Y204) phosphorylation levels reached saturable values” was determined as 5 nM. In the test with ERK 1/2 (obestatin 5 nM), the “time post-stimulation of maximum pERK1/2(T202/Y204) levels” value was found to be 10 min. Moreover, in the test on L6E9 myoblasts (5.0 nM obestatin, 48 hours post-stimulation, GM (DMEM+10% FBS)), the “maximum increase in the number of cells in relation to the control” value was roughly 2.2. Further, the “obestatin concentration of maximum increase in the number of cells” value with L6E9 myoblasts (range 0.01-100 nM, 48 hours, GM) was 5.0 nM. Besides, in test [1] (gastrocnemius and soleus), the “MHC protein levels in relation to control rats” value is on record as “significantly increased”, the “Myf5 protein levels in relation to control rats” value is “significantly increased”, the “Myf6 protein levels in relation to control rats” value is recorded as “significantly increased” and the “MyoD protein levels in relation to control rats” value was “significantly increased”. Besides, in test [1] (gastrocnemius and soleus), the “Pax-7 protein levels in relation to control rats” value was “significantly increased” and the “myogenin protein levels in relation to control rats” value is recorded as “significantly increased”. Further, the “Six-1 protein levels in relation to control rats” value in test [1] (gastrocnemius) is reported as “no effect at all”. In test [1] (soleus), the “Six-1 protein levels in relation to control rats” value is “significant increased”. Also, the “loss of tibialis anterior muscle mass (weight) in relation to vehicle (PBS) controls” value in test [2] is “reduces the loss of muscle mass”.
